In patent US8975235B2, “Lysophosphatidic acid receptor antagonists” (InterMune, Inc., priority 2011, dated 2015) one finds IC50 and EC50 data, which are given here for 17 molecules.

Assay type in all cases: cell-based
One experiment concerns the target T1, Human LPA3 (Homo sapiens, UniProt Q9UBY5).
T1 construct: The full-length cDNA fragment for human LPA3 is obtained by PCR from the vector; expressed in transfected cells; host or cells: CHO
T1 sequence (Q9UBY5 1-353): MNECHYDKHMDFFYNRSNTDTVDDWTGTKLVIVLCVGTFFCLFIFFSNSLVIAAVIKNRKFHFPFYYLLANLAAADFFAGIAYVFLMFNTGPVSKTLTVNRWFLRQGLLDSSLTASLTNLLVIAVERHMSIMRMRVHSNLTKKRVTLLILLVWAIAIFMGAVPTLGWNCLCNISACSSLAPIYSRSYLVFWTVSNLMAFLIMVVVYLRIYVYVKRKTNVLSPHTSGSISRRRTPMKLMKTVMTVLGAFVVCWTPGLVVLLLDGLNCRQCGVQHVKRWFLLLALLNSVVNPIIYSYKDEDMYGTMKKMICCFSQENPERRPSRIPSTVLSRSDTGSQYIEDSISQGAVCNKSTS
The experiment is described as follows: LPA3 calcium flux assay. As to conditions: human LPA3 expressing CHO cells; stimulated with 10 nM LPA; read-out: Ca Flux LPA3 IC50. As to the method: Establishment of a CHO Cell Line Stably Expressing Human LPA3
A vector containing the human LPA3 receptor cDNA is obtained from the Missouri S&T cDNA Resource Center (www.cdna.org). The full-length cDNA fragment for human LPA3 is obtained by PCR from the vector. The nucleotide sequence of the cloned human LPA3 is determined by sequencing and is confirmed to be identical to the published human LPA3 sequence (NCBI accession number NM_012152). The cDNA is cloned into the pcDNA5 pcDNA5/FRT expression plasmid and is transfected in CHO cells using lipofectamine 2000 (Invitrogen Corp., USA). Clones stably expressing human LPA3 are selected using hygromycin and identified as cells that show Ca-influx in response to LPA.
(§1) LPA1 and LPA3 Calcium Flux Assays
(§2) Human LPA1 or LPA3 expressing CHO cells were seeded at 20,000-45,000 cells per well in a 96-well poly-D-lysine coated plate one or two days before the assay. Prior to the assay, the cells were washed once with PBS and then cultured in serum-free media overnight. On the day of the assay, a calcium indicator dye (Calcium 4, Molecular Devices) in assay buffer (HBSS with Ca^2+ and Mg^2+ and containing 20 mM Hepes and 0.3% fatty-acid free human serum albumin) was added to each well and incubation continued for 1 hour at 37° C. 10 μl of test compounds in 2.5% DMSO were added to the cells and incubation continued at room temperature for 30 minutes. Cells were then stimulated by the addition of 10 nM LPA and intracellular Ca^2+ measured using the Flexstation 3 (Molecular Devices). IC50s were determined using Graphpad prism analysis of drug titration curves.
(In general: A change in cytosolic calcium serves as a functional read-out for many receptors and channels.)

For experiment [1], the target named is T2, Human LPA1 (Homo sapiens, UniProt Q92633). The experiment is described as follows: Beta-Arrestin based assay for human LPA1R antagonists (PathHunter). More on the design: host or cells: CHO. The settings on record: CHO cells stably expressing ProLink tagged human LPA1R; agonist LPA 0.5 micromolar. In short, it runs like this:
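CHO cells stably expressing ProLink-tagged human LPA1R with β-arrestin–EA fusion, assayed by β-galactosidase complementation. Antagonists tested against 0.5 micromolar LPA ([…]), in quadruplicate. End-point luminescence fitted to a 4-parameter logistic to give IC50.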

Experiment [2] has as its target T2, Human LPA1. Nature of the experiment: LPA1 calcium flux assay. More on the design: the full-length cDNA for human LPA1 is obtained by PCR of the reverse transcription reaction; expressed in transfected cells; host or cells: CHO. As to conditions: human LPA1 expressing CHO cells; stimulated with 10 nM LPA; read-out: Ca Flux LPA1 IC50. As to the method:
Establishment of a CHO Cell Line Stably Expressing Human LPA1
A 1.1 kb cDNA encoding the human LPA1 receptor is cloned from human lung. Human lung RNA (Clontech Laboratories, Inc. USA) is reverse transcribed using the RETROscript kit (Ambion, Inc.) and the full-length cDNA for human LPA1 is obtained by PCR of the reverse transcription reaction. The nucleotide sequence of the cloned human LPA1 is determined by sequencing and is confirmed to be identical to the published human LPA1 sequence (An et al. Biochem. Biophys. Res. Commun. 231:619 (1997). The cDNA is cloned into the pcDNA5 pcDNA5/FRT expression plasmid and is transfected in CHO cells using lipofectamine 2000 (Invitrogen Corp., USA). Clones stably expressing human LPA1 are selected using hygromycin and identified as cells that show Ca-influx in response to LPA.
as §1, §2

T2 sequence (Q92633 whole entry, the tested form may be a part): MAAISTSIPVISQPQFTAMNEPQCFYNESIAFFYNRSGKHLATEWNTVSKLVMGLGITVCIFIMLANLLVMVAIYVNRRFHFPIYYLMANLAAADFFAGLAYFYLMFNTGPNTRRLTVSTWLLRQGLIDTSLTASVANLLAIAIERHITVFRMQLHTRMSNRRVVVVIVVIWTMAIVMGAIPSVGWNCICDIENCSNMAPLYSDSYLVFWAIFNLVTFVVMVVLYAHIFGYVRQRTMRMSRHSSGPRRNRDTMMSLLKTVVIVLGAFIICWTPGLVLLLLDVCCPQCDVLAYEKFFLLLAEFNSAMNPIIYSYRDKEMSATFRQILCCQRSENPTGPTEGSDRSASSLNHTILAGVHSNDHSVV

A word on the IC50: it is the concentration at which inhibition is half-maximal. The term EC50 denotes the concentration that produces a half-maximal response. Read a low EC50 as greater potency. As for `Cc1noc(-c2ccc(-c3ccc(C(C(=O)O)c4ccccc4)cc3)cc2)c1NC(=O)O[C@H](C)c1ccccc1Cl` (single isomer, unassigned) [Compound 14], the IC50 on Human LPA3 is 50 to 500 nM; on Human LPA1 [2], less than 50 nM. On Human LPA1 [1], this molecule had an EC50 of less than 50 nM.
Consider `Cc1noc(-c2ccc(-c3ccc(CC(=O)O)c4ccccc34)cc2)c1NC(=O)O[C@H](C)c1ccccc1Cl` [Compound 6], for which the IC50 on Human LPA3 and on Human LPA1 [2] was 50 to 500 nM throughout. The molecule further registered an EC50 at Human LPA1 [1] of less than 50 nM.
For `Cc1nsc(-c2ccc(-c3ccc(CC(=O)O)cc3)cc2)c1NC(=O)O[C@H](C)c1ccccc1Cl` [Compound 20], the IC50 on Human LPA3 is more than 500 nM; on Human LPA1 [2], less than 50 nM. The molecule further showed an EC50 at Human LPA1 [1] of 50 to 500 nM.
Taken in the same sequence, the figures for `Cc1nnn(-c2ccc(-c3ccc(C4(C(=O)O)CC4)cc3)cc2)c1NC(=O)O[C@H](C)c1ccccc1` [Compound 65] were more than 500 nM, less than 50 nM and less than 50 nM.
The matching figures for `Cc1noc(-c2ccc(-c3ccc(C4(C(=O)O)CC4)cc3)cc2)c1NC(=O)O[C@H](C)c1ccccc1` [Compound 74]: more than 500 nM, less than 50 nM and less than 50 nM.
As to `C[C@@H](OC(=O)Nc1c(-c2ccc(-c3ccc(C4(C(=O)O)CC4)cc3)cc2)oc2cnccc12)c1ccccc1Cl` [Compound 149], the IC50 at Human LPA3 is more than 500 nM; at Human LPA1 [2], 50 to 500 nM. This molecule returned an EC50 at Human LPA1 [1] of less than 50 nM.
The matching figures for `C[C@@H](OC(=O)Nc1c(-c2ccc(-c3ccc(C4(C(=O)O)CC4)cc3)cc2)oc2ncccc12)c1ccccc1` [Compound 152]: 50 to 500 nM, 50 to 500 nM and less than 50 nM.
The matching figures for `C[C@@H](OC(=O)Nc1c(-c2ccc(-c3ccc(C4(C(=O)O)CC4)cc3)cc2)oc2ncccc12)c1ccccc1Cl` [Compound 153]: more than 500 nM, more than 500 nM and less than 50 nM.
Taken in the same sequence, the figures for `C[C@@H](OC(=O)Nc1c(-c2ccc(-c3ccc(C4(C(=O)O)CC4)cc3)cc2)cnn1C)c1ccccc1` [Compound 170] were more than 500 nM, less than 50 nM and less than 50 nM.
Consider `C[C@@H](OC(=O)Nc1c(-c2ccc(-c3ccc(C4(C(=O)O)CC4)cc3)cc2)cnn1C)c1ccccc1Cl` [Compound 171], for which the IC50 is more than 500 nM at Human LPA3 and less than 50 nM on Human LPA1 [2]. In addition, the EC50 on Human LPA1 [1] was less than 50 nM.
In the case of `Cc1nsc(-c2cc(Cl)c(-c3ccc(C4(C(=O)O)CC4)cc3)cc2F)c1NC(=O)O[C@H](C)c1ccccc1` [Compound 179], on Human LPA1 [1], the EC50 is less than 50 nM. Besides, the IC50 at Human LPA1 [2] lay in the range of 50 to 500 nM.
As for `Cc1nsc(-c2cc(F)c(-c3ccc(C4(C(=O)O)CC4)cc3)cc2F)c1NC(=O)O[C@H](C)c1ccccc1` [Compound 182], the EC50 on Human LPA1 [1] is less than 50 nM. Further, the IC50 at Human LPA1 [2] was less than 50 nM.
For `Cc1nsc(-c2ccc(-c3ccc(C4(C(=O)O)CC4)cc3)c(F)c2)c1NC(=O)O[C@H](C)c1ccccc1` [Compound 185], the EC50 at Human LPA1 [1] is less than 50 nM. The IC50 on Human LPA1 [2] is less than 50 nM.
In the case of `C[C@@H](OC(=O)Nc1c(-c2cc(F)c(-c3ccc(C4(C(=O)O)CC4)cc3)cc2F)cnn1C)c1ccccc1` [Compound 200], at Human LPA1 [1], the EC50 was less than 50 nM. Also, the IC50 at Human LPA1 [2] lay within 50 to 500 nM.
As to `C[C@@H](OC(=O)Nc1c(-c2cc(Cl)c(-c3ccc(C4(C(=O)O)CC4)cc3)cc2F)cnn1C)c1ccccc1` [Compound 201], the EC50 on Human LPA1 [1] is less than 50 nM. The IC50 on Human LPA1 [2] is less than 50 nM.
For `Cc1nsc(-c2ccc(-c3ccc(C4(C(=O)O)COC4)cc3)cc2)c1NC(=O)O[C@H](C)c1ccccc1` [Compound 241], the EC50 at Human LPA1 [1] was 50 to 500 nM. Besides, the IC50 on Human LPA1 [2] was in the range of 50 to 500 nM.
Molecule `Cc1noc(-c2ccc(-c3ccc(C4(C(=O)O)CCOCC4)cc3)cc2)c1NC(=O)O[C@H](C)c1ccccc1` [Compound 242] had an EC50 on Human LPA1 [1] of less than 50 nM. In addition, the IC50 on Human LPA1 [2] lay in the range of 50 to 500 nM.
